Where no end group is shown, it is not given here.
Experiments:
[1] = tested on: mKate-E0771 cells; assay: MTT cell viability assay; type: cell-based, mouse; conditions: 1 h; for Cell viability (MTT), normalized to untreated cells: 37 °C
Experimental: Supplementary Figure 9. Cell viability assays in mKate-E0771 cancer cells. mKate-E0771 cells were plated in 96-well plates (50,000 cells well-1) and incubated at the […]
Cell viability was determined using a commercially available MTT kit (Invitrogen) with values normalized to untreated cells.
Data presented as mean values±SEM (2 independent experiments with 3 replicates for each). P values were obtained from ONE-ANOVA tests with multiple comparisons.
Source data provided as a Source Data file.
(1 picture or pasted object on this page, not shown here)

[2] = tested on: OVA-EL4 cancer cells; assay: Time-course flow cytometry of OVA-EL4 cancer cells with OT-I CD8+ T cells; type: cell-based; parameters: unit not given here; conditions: H5 10 μM, Sytox Blue 1 μM
Description: Legends: viable (gray), H5-stained (green), apoptotic (red). […] Black arrows highlight T cells, yellow arrows highlight H5-stained intracellular GzmB puncta. […] Scale bar: 10 μm. f Flow cytometric analysis of OVA-EL4 cancer cells from experiments in e. Data as means ± SEM (n = 3). P-values from two-tailed t-tests. Source data (c, f) provided as a Source Data file.
We utilized CD8+ T cells expressing the OT-I transgenic receptor, which specifically targets cells presenting the OVA-derived […] antigen in the context of H-2kb and co-cultured them with […]-pulsed EL4 cancer cells (Fig. S11). T cells were counterstained with Cell Tracker Orange for ease of identification and incubated with probe H5 and the cell death marker Sytox Blue before time-lapse microscopy.

[3] = tested on: E0771 cells; assay: Flow cytometry of E0771 cells in co-culture with CD8+ T cells; type: cell-based, mouse; conditions: H5 5 μM
Experimental: Treatments with staurosporine (1 μM) were for 1 h. […]
mouse CD8+ T cells and mKate-E0771 cells. b) Representative flow cytometry contour plots of E0771 cells in: left) co-cultures of E0771 cells (50,000 cells well-1) and activated […]
cells well-1), right) E0771 alone cells treated with staurosporine (1 µM, 1 h). c) Representative flow cytometry contour plots of CD8+ T cells in: left) co-cultures of E0771 […]
2 h) murine CD8+ T cells (200,000 cells well -1). All cultures in b) and c) were equally […]
with and without preincubation of the GzmB inhibitor Ac -IEPD-CHO. Data presented as […]
633/670 nm (for AF647-Annexin V). Representative plots from independent experiments performed in triplicate. Source data in d provided as a Source Data file.

## IEPDAL [H5, FRET hexapeptide IEPDAL with BODIPY-FL fluorophore at the N-terminal end and Dabcyl quencher]
[1]; H5 3.1 (head prints mM), Data 1
  Cell viability (MTT), normalized to untreated cells: 107%
[1]; H5 3.1 (head prints mM), Data 2
  Cell viability (MTT), normalized to untreated cells: 102%
[1]; H5 3.1 (head prints mM), Data 3
  Cell viability (MTT), normalized to untreated cells: 89%
[1]; H5 3.1 (head prints mM), Data 4
  Cell viability (MTT), normalized to untreated cells: 85%
[1]; H5 3.1 (head prints mM), Data 5
  Cell viability (MTT), normalized to untreated cells: 94%
[1]; H5 3.1 (head prints mM), Data 6
  Cell viability (MTT), normalized to untreated cells: 89%
[1]; H5 6.3 (head prints mM), Data 1
  Cell viability (MTT), normalized to untreated cells: 99%
[1]; H5 6.3 (head prints mM), Data 2
  Cell viability (MTT), normalized to untreated cells: 93%
[1]; H5 6.3 (head prints mM), Data 3
  Cell viability (MTT), normalized to untreated cells: 97%
[1]; H5 6.3 (head prints mM), Data 4
  Cell viability (MTT), normalized to untreated cells: 95%
[1]; H5 6.3 (head prints mM), Data 5
  Cell viability (MTT), normalized to untreated cells: 89%
[1]; H5 6.3 (head prints mM), Data 6
  Cell viability (MTT), normalized to untreated cells: 90%
[1]; H5 12.5 (head prints mM), Data 1
  Cell viability (MTT), normalized to untreated cells: 107%
[1]; H5 12.5 (head prints mM), Data 2
  Cell viability (MTT), normalized to untreated cells: 106%
[1]; H5 12.5 (head prints mM), Data 3
  Cell viability (MTT), normalized to untreated cells: 99%
[1]; H5 12.5 (head prints mM), Data 4
  Cell viability (MTT), normalized to untreated cells: 96%
[1]; H5 12.5 (head prints mM), Data 5
  Cell viability (MTT), normalized to untreated cells: 84%
[1]; H5 12.5 (head prints mM), Data 6
  Cell viability (MTT), normalized to untreated cells: 88%
[1]; H5 25 (head prints mM), Data 1
  Cell viability (MTT), normalized to untreated cells: 107%
[1]; H5 25 (head prints mM), Data 2
  Cell viability (MTT), normalized to untreated cells: 102%
[1]; H5 25 (head prints mM), Data 3
  Cell viability (MTT), normalized to untreated cells: 99%
[1]; H5 25 (head prints mM), Data 4
  Cell viability (MTT), normalized to untreated cells: 76%
[1]; H5 25 (head prints mM), Data 5
  Cell viability (MTT), normalized to untreated cells: 81%
[1]; H5 25 (head prints mM), Data 6
  Cell viability (MTT), normalized to untreated cells: 81%
[1]; MTT, 37 °C (Fig. S9)
  cytotoxicity: not cytotoxic
[2]; 0 h, Data 1
  H5+DAPI+ OVA-EL4 cancer cells: 0.47
  H5+DAPI- OVA-EL4 cancer cells: 1.17
  H5-DAPI+ OVA-EL4 cancer cells: 0.04
[2]; 0 h, Data 2
  H5+DAPI+ OVA-EL4 cancer cells: 0.46
  H5+DAPI- OVA-EL4 cancer cells: 0.35
  H5-DAPI+ OVA-EL4 cancer cells: 0.011
[2]; 0 h, Data 3
  H5+DAPI+ OVA-EL4 cancer cells: 0.43
  H5+DAPI- OVA-EL4 cancer cells: 0.23
  H5-DAPI+ OVA-EL4 cancer cells: 0.00
[2]; 1 h, Data 1
  H5+DAPI+ OVA-EL4 cancer cells: 0.60
  H5+DAPI- OVA-EL4 cancer cells: 1.57
  H5-DAPI+ OVA-EL4 cancer cells: 0.03
[2]; 1 h, Data 2
  H5+DAPI+ OVA-EL4 cancer cells: 0.80
  H5+DAPI- OVA-EL4 cancer cells: 1.83
  H5-DAPI+ OVA-EL4 cancer cells: 0.053
[2]; 1 h, Data 3
  H5+DAPI+ OVA-EL4 cancer cells: 0.49
  H5+DAPI- OVA-EL4 cancer cells: 1.53
  H5-DAPI+ OVA-EL4 cancer cells: 0.026
[2]; 2 h, Data 1
  H5+DAPI+ OVA-EL4 cancer cells: 0.82
  H5+DAPI- OVA-EL4 cancer cells: 3.01
  H5-DAPI+ OVA-EL4 cancer cells: 0.047
[2]; 2 h, Data 2
  H5+DAPI+ OVA-EL4 cancer cells: 0.66
  H5+DAPI- OVA-EL4 cancer cells: 2.90
  H5-DAPI+ OVA-EL4 cancer cells: 0.06
[2]; 2 h, Data 3
  H5+DAPI+ OVA-EL4 cancer cells: 0.58
  H5+DAPI- OVA-EL4 cancer cells: 2.81
  H5-DAPI+ OVA-EL4 cancer cells: 0.038
[2]; 3 h, Data 1
  H5+DAPI+ OVA-EL4 cancer cells: 2.18
  H5+DAPI- OVA-EL4 cancer cells: 2.12
  H5-DAPI+ OVA-EL4 cancer cells: 0.05
[2]; 3 h, Data 2
  H5+DAPI+ OVA-EL4 cancer cells: 1.34
  H5+DAPI- OVA-EL4 cancer cells: 2.16
  H5-DAPI+ OVA-EL4 cancer cells: 0.07
[2]; 3 h, Data 3
  H5+DAPI+ OVA-EL4 cancer cells: 1.51
  H5+DAPI- OVA-EL4 cancer cells: 1.83
  H5-DAPI+ OVA-EL4 cancer cells: 0.06
[2]; 4 h, Data 1
  H5+DAPI+ OVA-EL4 cancer cells: 3.60
  H5+DAPI- OVA-EL4 cancer cells: 0.63
  H5-DAPI+ OVA-EL4 cancer cells: 0.09
[2]; 4 h, Data 2
  H5+DAPI+ OVA-EL4 cancer cells: 3.55
  H5+DAPI- OVA-EL4 cancer cells: 0.46
  H5-DAPI+ OVA-EL4 cancer cells: 0.05
[2]; 4 h, Data 3
  H5+DAPI+ OVA-EL4 cancer cells: 2.80
  H5+DAPI- OVA-EL4 cancer cells: 0.60
  H5-DAPI+ OVA-EL4 cancer cells: 0.026
[2]; 5 h, Data 1
  H5+DAPI+ OVA-EL4 cancer cells: 8.18
  H5+DAPI- OVA-EL4 cancer cells: 0.17
  H5-DAPI+ OVA-EL4 cancer cells: 0.053
[2]; 5 h, Data 2
  H5+DAPI+ OVA-EL4 cancer cells: 8.22
  H5+DAPI- OVA-EL4 cancer cells: 0.12
  H5-DAPI+ OVA-EL4 cancer cells: 0.10
[2]; 5 h, Data 3
  H5+DAPI+ OVA-EL4 cancer cells: 16.90
  H5+DAPI- OVA-EL4 cancer cells: 0.10
  H5-DAPI+ OVA-EL4 cancer cells: 0.14
[2]; 6 h, Data 1
  H5+DAPI+ OVA-EL4 cancer cells: 11.60
  H5+DAPI- OVA-EL4 cancer cells: 0.09
  H5-DAPI+ OVA-EL4 cancer cells: 0.10
[2]; 6 h, Data 2
  H5+DAPI+ OVA-EL4 cancer cells: 10.50
  H5+DAPI- OVA-EL4 cancer cells: 0.11
  H5-DAPI+ OVA-EL4 cancer cells: 0.10
[2]; 6 h, Data 3
  H5+DAPI+ OVA-EL4 cancer cells: 18.10
  H5+DAPI- OVA-EL4 cancer cells: 0.076
  H5-DAPI+ OVA-EL4 cancer cells: 0.07
[3]; E0771-La2-NLR cells cultured with activated T cells
  cancer cells double-stained with H5 and Annexin V-AF647: over 80%
[3]; E0771 alone, staurosporine 1 μM, 1 h, replicate 1
  H5 +ve E0771 cells: 2.3%
[3]; E0771 alone, staurosporine 1 μM, 1 h, replicate 2
  H5 +ve E0771 cells: 1.69%
[3]; E0771 alone, staurosporine 1 μM, 1 h, replicate 3
  H5 +ve E0771 cells: 2.6%
[3]; co-culture with active CD8+ T cells (24 h IL-2), replicate 1
  H5 +ve E0771 cells: 79%
[3]; co-culture with active CD8+ T cells (24 h IL-2), replicate 2
  H5 +ve E0771 cells: 80%
[3]; co-culture with active CD8+ T cells (24 h IL-2), replicate 3
  H5 +ve E0771 cells: 76%
[3]; co-culture with inactive CD8+ T cells (2 h IL-2), replicate 1
  H5 +ve E0771 cells: 17%
[3]; co-culture with inactive CD8+ T cells (2 h IL-2), replicate 2
  H5 +ve E0771 cells: 18%
[3]; co-culture with inactive CD8+ T cells (2 h IL-2), replicate 3
  H5 +ve E0771 cells: 27%
